Test results reported in US10668059B2, “Compositions and methods for the prevention and treatment of mast cell-induced vascular leakage” (Duke University, priority 2012, dated 2020).

Tests used:
DENV [1] = assay: Evans Blue perfusion model of DENV-induced vascular leakage in WT mice; type: in vivo; details: i.p. 1×10^6 pfu DENV, 1 day after infection, versus uninfected baseline
Experimental: Uninfected mice, or mice infected with 1×10^6 pfu of DENV were injected with 100 μL of 5% Evans Blue dye 30 minutes prior to euthanasia. […] This contrast is particularly striking in the liver, a Dengue-target organ.
(§1) Serum was obtained from uninfected mice, DENV-infected and untreated mice, and mice that received MC-stabilizing or MC-product targeting treatments 24 hr after infection. Error bars represent the SEM of values obtained from individual animals n≥3.
As expected, Sash mice, which are MC-deficient model (see, e.g., Grimbaldestron, M. A. et al. (2005) Am. J. Pathol. 167:835-848), have undetectable serum levels of MCPT1 as baseline, as do uninfected congenic wild-type (WT) controls (FIG. 2A). To examine vascular leakage, mice infected with DENV were injected by tail vein with the tracking dye, Evans Blue, 30 minutes prior to euthanasia at a 24 hr time point.
Using this Evans Blue perfusion model, the extent of vascular leakage induced in 24 hr after i.p. instillation of 1×10^6 plaque-forming units (pfu) of DENV in WT and Sash mice was determined. […]
Due to the contributions of MCs to many pathological inflammatory disorders, there are a number of available drugs that target MCs or products that they produce after activation. […] Drugs were administered once, 30 minutes after i.p. instillation of 1×106 DENV and vascular leakage assessed 1 day after infection.

DENV [2] = assay: Hematocrit analysis in DENV-infected WT mice; type: in vivo; details: i.p. 1×10^6 pfu DENV, 1 day after infection, versus uninfected baseline
Experimental: as §1
To support the observation of increased dye leakage, hematocrit analysis was also performed using blood samples from mice. This test is one that is used in some cases to diagnose DENV pathology clinically by measuring the packed red blood cell volume from the blood and, therefore, it is a measure of plasma loss (see, e.g., Special Programme for Research and Training in Tropical Diseases, WHO Dengue: guidelines for diagnosis, treatment, prevention, and control. (2009) New ed. Geneva:TDR:World Health Organization). […] These findings cumulatively point to a pivotal role for MCs in promoting DENV-induced increased in vascular permeability.
Due to the contributions of MCs to many pathological inflammatory disorders, there are a number of available drugs that target MCs or products that they produce after activation. […] This hypothesis was tested by blocking DENV induced vascular leakage using a panel of such drugs. […] Drugs were administered once, 30 minutes after i.p. instillation of 1×106 DENV and vascular leakage assessed 1 day after infection.

## CN1CCC(=C2c3ccccc3CC(=O)c3sccc32)CC1 [ketotifen]
DENV [1]
  levels of tissue dye detection compared to baseline levels: not statistically different from baseline levels
DENV [2]
  hematocrit values compared to baseline levels: not statistically different from baseline levels
